The values below come from patent US4643989A, “Inhibition of aldosterone secretion” (The Salk Institute for Biological Studies, priority 1984, dated 1987).

Bridges are numbered along the chain shown (N, C = ends).

In assay [1] the test system is rat adrenoglomerulosa cells. The assay can be described thus: Basal secretion of aldosterone by rat glomerulosa cells (radioimmunoassay). Conditions: for testing as set forth in Example II (inhibition of aldosterone secretion by rat glomerulosa cells): compared with rANF(8-33) results of Example II. Format: cell-based. As for the experimental part: (§1) Rat adrenoglomerulosa cells are obtained by enzymatic digest of adrenals harvested from peripubertal male Sprague Dawley rats(Holtzman, 125 g) using previously described methods, and testing is carried out to determine the effect of synthetic rANF(8-33) on the basal secretion of aldosterone by rat glomerulosa cells. Rat glomerulosa cells are prepared by enzymatic digestion of 20 rat adrenals after ennucleation. The cells remaining on the capsule are digested for 30 minutes with a mixture of collagenase and DNase (4 mg/ml, 4 μg/ml). Dispersed cells are filtered through gauze and centrifuged at 800 rpm for 15 minutes. The pellet is resuspended in M199 buffer containing 0.1% bovine serum albumin(BSA), and the cells are centrifuged at 800 rpm for 15 minutes. The cell pellet is again resuspended in M199-0.1% BSA buffer and distributed in 900-μl aliquots to 12×75 plastic tubes. The samples are preincubated for 90 minutes in a 37° C. waterbath under an atmosphere of 5% CO2 -95% O2. Aliquots of the test samples are added in a 100 μl volume and incubated for 4 hours. Aldosterone and corticosterone are measured by radioimmunoassay using antisera purchased from Endocrine Sciences, Oxnard, Calif. and [^3 H]-labelled steroid from New England Nuclear, Boston, Mass. Results are the mean±SEM of 7 replicates. Statistical analysis is performed by analysis of variance, and all points are significant (p<0.01) from control. In concentrations as low as ≤10^-9 M, there is a significant (p<0.01) inhibition of aldosterone synthesis that is even more accentuated when the higher concentrations are tested (p<0.001).

Assay [2] concerns rat glomerulosa cells. The experiment in a line: ACTH-stimulated aldosterone secretion by rat glomerulosa cells. Format: cell-based. Conditions: equimolar amounts of ACTH and peptide; p<0.001 versus secretagogue alone. As for the experimental part: as §1, with “Aliquots of the test samples are added in a 100 μl volume and incubated for 4 hours.” left out, “Results are the mean±SEM of 7 replicates. Statistical analysis is performed by analysis of variance, and all points are significant (p<0.01) from control. In concentrations as low as ≤10^-9 M, there is a significant (p<0.01) inhibition of aldosterone synthesis that is even more accentuated when the higher concentrations are tested (p<0.001).” left out
(§2) Similar inhibitory effects on aldosterone formation are obtained when its secretion by the glomerulosa cells in vitro is stimulated with either ACTH or AN-II. […] Aldosterone secretion is measured as above by radioimmunoassay. […]

Assay [3] deals with rat glomerulosa cells. The assay can be described thus: AN-II-stimulated aldosterone secretion by rat glomerulosa cells. In kind it is cell-based. Conditions: equimolar amounts of AN-II and peptide; p<0.001 versus secretagogue alone. As for the experimental part:
as §1, with “Aliquots of the test samples are added in a 100 μl volume and incubated for 4 hours.” left out, “Results are the mean±SEM of 7 replicates. Statistical analysis is performed by analysis of variance, and all points are significant (p<0.01) from control. In concentrations as low as ≤10^-9 M, there is a significant (p<0.01) inhibition of aldosterone synthesis that is even more accentuated when the higher concentrations are tested (p<0.001).” left out
as §2

In assay [4] the test system is rat glomerulosa cells. The experiment in a line: Corticosterone formation by rat glomerulosa cells (radioimmunoassay). Format: cell-based. Particulars: 10^-7 M peptide. How it is done: as §1
In other experiments, ANF(8-33) had no effect on pituitary ACTH secretion.

For assay [5], the system named is pituitary ACTH secretion. The assay can be described thus: Pituitary ACTH secretion. Conditions: other experiments.

Regarding “H-Arg-Arg-Ser-Ser-Cys-Phe-Gly-Gly-Arg-Met-Asp-Arg-Ile-Gly-Ala-Gln-Ser-Gly- Leu-Gly-Cys-Asn-Ser-Phe-Tyr-OH (H-RRSSCFGGRMDRIGAQSGLGCNSFY-OH; disulfide 5-21; ends not checked) [hANF(8-33)]”, in assay [1], the “testing as set forth in Example II (inhibition of aldosterone secretion by rat glomerulosa cells)” value is on record as “comparable results”.

“rANF(3-33)--NH2: C-terminal amide of rat ANF fragment 3-33”: the “testing as set forth in Example II (inhibition of aldosterone secretion by rat glomerulosa cells)” value in assay [1] is “comparable results”.

Turning to rANF(5-33): rat ANF fragment 5-33, in assay [1], the “testing as set forth in Example II (inhibition of aldosterone secretion by rat glomerulosa cells)” value was “comparable results”.

With rANF(8-30): rat ANF fragment 8-30, the “testing as set forth in Example II (inhibition of aldosterone secretion by rat glomerulosa cells)” value in assay [1] is “comparable results”.

In the case of “rANF(8-32)--NH2: C-terminal amide of rat ANF fragment 8-32”, in assay [1], the “testing as set forth in Example II (inhibition of aldosterone secretion by rat glomerulosa cells)” value is on record as “comparable results”.

Consider “rANF(8-33): 26-residue fragment of rat atrial natriuretic factor with disulfide bond between the Cys residues”, for which the stimulation of aldosterone result in assay [1] is on record as “at no point was rANF(8-33) observed to stimulate aldosterone”. In assay [1] (basal, 4 hours incubation, p<0.01 versus control, more accentuated at higher concentrations (p<0.001)), the “concentration giving significant inhibition of aldosterone synthesis (basal secretion)” value is on record as ≤ 10^-9 M. For the same substance, the “inhibition of ACTH-stimulated aldosterone secretion” value in assay [2] is “significant inhibition of aldosterone secretion”. Further, the “inhibition of AN-II-stimulated aldosterone secretion” value in assay [3] is “significant inhibition of aldosterone secretion”. The same substance had a basal corticosterone formation in assay [4] (decrease from 24.7±0.8 ng/ml without peptide) of 7.8 ± 0.3 ng/mL. This substance also had an AN-II-stimulated corticosterone formation in assay [4] (decrease from 37.2±1.4 ng/ml without peptide, p<0.001) of 21.9 ± 0.9 ng/mL. Further, the ACTH-stimulated corticosterone formation in assay [4] (decrease from 43.4±0.7 ng/ml without peptide, p<0.001) is 36.1 ± 0.7 ng/mL. Besides, the “effect on pituitary ACTH secretion” value in assay [5] was “no effect”.
